From US7109234B2, “Benzoxathiepine derivatives and their use as medicines” (Pierre Fabre Medicament, priority 2001, dated 2006)
Structures can show the parent of a compound that is named as a salt.

Tests used:
rat isolated left atrium = test: Inhibition of the veratrine-induced contraction of the rat isolated left atrium; assay type: cell-based
New Zealand rabbits = test: Occlusion-reperfusion model in the anesthetized animal (ECG ST segment, arterial pressure, heart rate); assay type: in vivo, rabbit
Description: Thus, the compounds of the invention are capable of normalizing the electrical disturbances of the ECG brought about by a regional ischemia followed by a reperfusion, this being achieved without a significant effect on the hemodynamic parameters. The test in question is carried out according to the technique described in J. Cardiovasc. Pharmacol., 1995, 25, 126 according to the following protocol.
Male New Zealand rabbits (Elévage des Dombes, Romans, Chatillon-sur-Chalaronne, France) weighing 2.2 to 2.7 kg are used. The animals are placed in quarantine for 4 to 8 days with free access to standardized laboratory food before they are used in the experiments. The animals are housed individually. Water filtered through a 0.22 μm filter is freely available from an automatic dispenser. The quarantine area and the experimental laboratory are air-conditioned (temperature: 20±3° C.; relative humidity: 55±5%) and are illuminated from 7 a.m. to 7 p.m. All the animals are treated according to the code of ethics for laboratory animals (Guide for the Care and Use of Laboratory Animals, […], Public Health Service, National Institutes of Health publication No. 85-23, Revised 1985) and the protocol (No. 28) is carried out in accordance with the recommendations of the local research animals ethics committee. The animals are anesthetized using sodium pentobarbital (60 mg/kg) administered intravenously (i.v.) via a catheter positioned in the vein of the ear. The animals are instrumented with respiratory assistance (683 rodent/small animal ventilator, Havard Apparatus, Les Ulis, France). The gas mixture inhaled is enriched in oxygen. The respiratory rhythm, the flow volume and the percentage of oxygen in the gas mixture are adjusted so as to keep the gases in the blood within physiological limits. A polyethylene catheter, introduced into the carotid artery, is used both for the measurements of arterial pressure and to take the samples intended for the analysis of the blood gases (ABL 510, Radiometer, Copenhagen, Denmark). Anesthesia is maintained by injections of sodium pentobarbital as required. The body temperature of the animals is kept at 38–39° C. throughout the duration of the experiment using a heating blanket (Homothermic Blanket, Havard Apparatus). The various catheters are rinsed using a sterile saline solution (0.9%) comprising heparin (150 U.I./ml). The ECG (DII derivation) is recorded in order to measure the variations in the heart rate (RR interval) and in the amplitude of the ST segment. The arterial pressure is digitized and analyzed simultaneously (Dataflow®, Crystal Biotech, Northboro, Mass.). The thorax of the animal is opened at the fourth intercostal space and the pericardium is incised so as to reveal the left coronary artery. A ligature (Vicryl®, 5/0, Ethicon, Paris, France) is passed under this artery. After examining the ECG in order to detect any signs of myocardial lesions (persistent rise of the ST segment above 0.25 mV), a period of stabilization lasting 30 min is systematically observed. Any animal showing a possible myocardial lesion is excluded from the study. The test compound or the vehicle is administered per os (p.o.), as a 1% solution in methyl-cellulose, in a proportion of 1 ml/kg via a gastric tube made of flexible rubber. Anesthesia is produced 60 min after administration of the test compound or of the vehicle. The main coronary artery is then ligated for 10 min, i.e. 60 min after anesthesia, the tension in the ligature is subsequently relaxed completely for 10 min and then reestablished at the end of the procedure. The heart is excised and perfused using a formaldehyde solution (10%). The surface not fixed by the formaldehyde is regarded as the surface at risk.
The parameters measured in the experiment are: • the systolic and diastolic arterial pressure; • the heart rate (measured from the RR intervals); • the amplitude of the ST segment. […]

[1] = 2.5 mg/kg p.o., anesthetized rabbit

Row | Structure (SMILES) | melting point [°C] | further results
1 | COc1cccc(SC[C@@H](C)CN[C@@H]2COc3ccccc3SC2)c1O (as salt: maleate) [Compound 1-23, 3-(R)-[3-(2-Hydroxy-3-methoxyphenylthio)-2-(S)-methylpropyl]amino-3,4-dihydro-2H-1,5-benzoxathiepine] | 137 to 139 | –
2 | CC(C)NCC(O)COc1ccc(CC(N)=O)cc1 (stereo not drawn) [Atenolol, atenolol] | – | IC50 (rat isolated left atrium; rat isolated left atrium, veratrine 100 μg/ml, product added 15 min before, read-out: Contraction with veratrine Inhibition IC50): > 10 µM; in vitro activity (contraction with veratrine) (rat isolated left atrium; stated in words): inactive; Arterial pressure % variation (New Zealand rabbits; [1]): −9%; Heart rate % variation (New Zealand rabbits; [1]): −13%; ST segment % inhibition at 2.5 mg/kg p.o. (New Zealand rabbits; 2.5 mg/kg p.o., anesthetized rabbit, coronary occlusion-reperfusion): 49%; in vivo activity (inhibition of the raising of the ST segment) (New Zealand rabbits; stated in words, 2.5 mg/kg by the oral route): active
3 | COc1ccccc1SC[C@H](CN[C@@H]1COc2ccccc2SC1)C(C)C (as salt: maleate) [Compound 1-13, 3-(R)-[3-(2-Methoxyphenylthio)-2-(S)-(isopropyl)propyl]amino-3,4-dihydro-2H-1,5-benzoxathiepine] | 114 to 115 | –
4 | Oc1ccccc1SC[C@H](O)CN[C@@H]1COc2ccccc2SC1 (as salt: oxalate) [Compound 1-4, 3-(R)-[3-(2-Hydroxyphenylthio)-2-(R)-hydroxypropyl]amino-3,4-dihydro-2H-1,5-benzoxathiepine] | 135 | –
5 | COc1ccccc1SC[C@H](O)CN[C@@H]1COc2ccccc2SC1 (as salt: maleate) [Compound 1-6, 3-(R)-[3-(2-Methoxyphenylthio)-2-(R)-hydroxypropyl]amino-3,4-dihydro-2H-1,5-benzoxathiepine] | 136 to 138 | –
6 | Cc1cccc(O)c1SC[C@@H](C)CN[C@@H]1COc2ccccc2SC1 (as salt: maleate) [Compound 1-26, 3-(R)-[3-(2-Hydroxy-6-methylphenylthio)-2-(S)-methylpropyl]amino-3,4-dihydro-2H-1,5-benzoxathiepine] | 153 to 154 | –
7 | COc1cccc(SC[C@@H](C)CN[C@@H]2COc3ccccc3SC2)c1OC (as salt: maleate) [Compound 1-24, 3-(R)-[3-(2,3-Dimethoxyphenylthio)-2-(S)-methylpropyl]amino-3,4-dihydro-2H-1,5-benzoxathiepine] | 117 to 119 | –
8 | C[C@@H](CN[C@@H]1COc2ccccc2SC1)CSc1cccc2c1OCC2 (as salt: maleate) [Compound 1-16, 3-(R)-[3-(2,3-Dihydrobenzofuran-7-thio)-2-(S)-methylpropyl]amino-3,4-dihydro-2H-1,5-benzoxathiepine] | 116 to 118 | –
9 | Cc1cccc(SC[C@H](CN[C@@H]2COc3ccccc3SC2)C(C)C)c1O (as salt: maleate) [Compound 1-21, 3-(R)-[3-(2-Hydroxy-3-methylphenylthio)-2-(S)-(isopropyl)propyl]amino-3,4-dihydro-2H-1,5-benzoxathiepine] | 127 | –
10 | Cc1cccc(SC[C@@H](C)CN[C@@H]2COc3ccccc3SC2)c1O (as salt: maleate) [Compound 1-17, 3-(R)-[3-(2-Hydroxy-3-methylphenylthio)-2-(S)-methylpropyl]amino-3,4-dihydro-2H-1,5-benzoxathiepine] | 124 to 126 | –
11 | CCc1cccc(SC[C@@H](C)CN[C@@H]2COc3ccccc3SC2)c1O (as salt: maleate) [Compound 1-19, 3-(R)-[3-(2-Hydroxy-3-ethylphenylthio)-2-(S)-methylpropyl]amino-3,4-dihydro-2H-1,5-benzoxathiepine] | 120 | –
12 | COc1ccccc1SC[C@@H](C)CN[C@@H]1COc2ccc(C)cc2SC1 (as salt: maleate) [Compound 1-14, 3-(R)-[3-(2-Methoxyphenylthio)-2-(S)-methylpropyl]amino-7-methyl-3,4-dihydro-2H-1,5-benzoxathiepine] | 148 | –
13 | CC[C@H](CN[C@@H]1COc2ccccc2SC1)CSc1ccccc1OC (as salt: maleate) [Compound 1-10, 3-(R)-[3-(2-Methoxyphenylthio)-2-(R)-ethylpropyl]amino-3,4-dihydro-2H-1,5-benzoxathiepine] | 140 | –
14 | CC[C@@H](CN[C@@H]1COc2ccccc2SC1)CSc1ccccc1OC (as salt: fumarate) [Compound 1-9, 3-(R)-[3-(2-Methoxyphenylthio)-2-(S)-ethylpropyl]amino-3,4-dihydro-2H-1,5-benzoxathiepine] | 86 to 88 | –
15 | COc1ccccc1SC[C@@H](C)CN[C@@H]1COc2cccc(C)c2SC1 (as salt: maleate) [Compound 1-15, 3-(R)-[3-(2-Methoxyphenylthio)-2-(S)-methylpropyl]amino-6-methyl-3,4-dihydro-2H-1,5-benzoxathiepine] | 111 to 113 | –
16 | CC[C@@H](CN[C@@H]1COc2ccccc2SC1)CSc1cccc(C)c1O (as salt: maleate) [Compound 1-20, 3-(R)-[3-(2-Hydroxy-3-methylphenylthio)-2-(S)-ethylpropyl]amino-3,4-dihydro-2H-1,5-benzoxathiepine] | 111 to 112 | –
17 | CCC[C@H](CN[C@@H]1COc2ccccc2SC1)CSc1ccccc1OC (as salt: maleate) [Compound 1-12, 3-(R)-[3-(2-Methoxyphenylthio)-2-(R)-(n-propyl)propyl]amino-3,4-dihydro-2H-1,5-benzoxathiepine] | 131 to 133 | –
18 | Oc1ccccc1SC[C@@H](O)CN[C@@H]1COc2ccccc2SC1 (as salt: oxalate) [Compound 1-3, 3-(R)-[3-(2-Hydroxyphenylthio)-2-(S)-hydroxypropyl]amino-3,4-dihydro-2H-1,5-benzoxathiepine] | 176 to 177 | –
19 | COc1ccccc1SC[C@H](CN[C@@H]1COc2ccccc2SC1)OC (as salt: maleate) [Compound 1-1, 3-(R)-[3-(2-Methoxyphenylthio)-2-(S)-methoxypropyl]amino-3,4-dihydro-2H-1,5-benzoxathiepine] | 122 | –
20 | COc1ccccc1SC[C@@H](O)CN[C@@H]1COc2ccccc2SC1 (as salt: maleate) [Compound 1-5, 3-(R)-[3-(2-Methoxyphenylthio)-2-(S)-hydroxypropyl]amino-3,4-dihydro-2H-1,5-benzoxathiepine] | 133 to 135 | –
21 | CCC[C@@H](CN[C@@H]1COc2ccccc2SC1)CSc1ccccc1OC (as salt: maleate) [Compound 1-11, 3-(R)-[3-(2-Methoxyphenylthio)-2-(S)-(n-propyl)propyl]amino-3,4-dihydro-2H-1,5-benzoxathiepine] | 132 to 133 | –
22 | Cc1cccc(SC[C@@H](C)CN[C@@H]2COc3cccc(C)c3SC2)c1O (as salt: maleate) [Compound 1-22, 3-(R)-[3-(2-Hydroxy-3-methylphenylthio)-2-(S)-methylpropyl]amino-6-methyl-3,4-dihydro-2H-1,5-benzoxathiepine] | 108 to 109 | –
23 | C[C@@H](CN[C@@H]1COc2ccccc2SC1)CSc1ccccc1O (as salt: maleate) [Compound 1-18, 3-(R)-[3-(2-Hydroxyphenylthio)-2-(S)-methylpropyl]amino-3,4-dihydro-2H-1,5-benzoxathiepine] | 119 to 121 | –
24 | CC(C)c1cccc(SC[C@@H](C)CN[C@@H]2COc3ccccc3SC2)c1O (as salt: maleate) [Compound 1-25, 3-(R)-[3-(2-Hydroxy-3-(isopropyl)phenylthio)-2-(S)-methylpropyl]amino-3,4-dihydro-2H-1,5-benzoxathiepine] | 126 | –
25 | COc1ccccc1SC[C@@H](CN[C@@H]1COc2ccccc2SC1)OC (as salt: maleate) [Compound 1-2, 3-(R)-[3-(2-Methoxyphenylthio)-2-(R)-methoxypropyl]amino-3,4-dihydro-2H-1,5-benzoxathiepine] | 116 | –
